Results published in paper PMC8831520, “Small molecule SWELL1 complex induction improves glycemic control and nonalcoholic fatty liver disease in murine Type 2 diabetes” (Nature Communications, 2022).

Columns and labels:
T2D KKAy mice = test: Euglycemic hyperinsulinemic clamp with tracers; format: in vivo, mouse
Protocol: Sterile silicone catheters (Dow-Corning) were placed into the jugular vein of mice under isoflurane anesthesia. The placed catheter was flushed with 200 U/mL heparin in saline and the free end of the catheter was directed subcutaneously via a blunted 14-gauge sterile needle and connected to a small tubing device that exited through the back of the animal. […] Hyperinsulinemic euglycemic clamps were performed on day 8 post-surgery on unrestrained, conscious mice as described elsewhere[82],[83], with some modifications. Mice were fasted for 6 h at which time insulin and glucose infusion were initiated (time 0). At 80 min prior to time 0 basal sampling was conducted, where whole-body glucose flux was traced by infusion of 0.05 μCi/min D-[3-^3H]-glucose (Perkin Elmer), after a priming 5 μCi bolus for 1 min. After the basal period, starting at time 0 D-[3-^3H]-glucose was continuously infused at the rate of 0.2 μCi/min and the infusion of insulin (Humulin, Eli Lilly) was initiated with a bolus of 80 mU/kg/min (10 µl volume for 1 min) then followed by continuous infusion of insulin at the dose of 8 mU/kg/min throughout the assay. Fifty percent dextrose (Hospira) was infused at variable rates (GIR) starting at the same time as the initiation of insulin infusion to maintain euglycemia at the targeted level of 150 mg/dL (8.3 mM). Blood glucose (BG) measurements were taken every ten minutes via tail vein sampling using a Contour glucometer (Bayer). After the mouse reached stable BG and GIR (typically, after 75 min since starting the insulin infusion; for some mice, a long time was required to achieve steady-state) a single bolus of 12 μCi of [1-^14C]-2-deoxy-D-glucose (Perkin Elmer) in 96 μl of saline was administered. Plasma samples (collected from centrifuged blood) for determination of tracers enrichment, glucose level, and insulin concentration were obtained at times −80, −20, −10, 0, and every 10 min starting at 80 min post-insulin (5 min after [1-^14C]-2-deoxy-D-glucose bolus was administered) until the conclusion of the assay at 140 min. Tissue samples were then collected from mice under isofluorane anesthesia from organs of interest (e.g., liver, heart, kidney, white adipose tissue, brown adipose tissue, gastrocnemius, soleus, etc.) for determination of 1-^14C]-2-deoxy-D-glucose tracer uptake. Plasma and tissue samples were processed as described previously. Briefly, plasma samples were deproteinized with Ba(OH)2 and ZnSO4 and dried to eliminate tritiated water. The glucose turnover rate (mg/kg-min) was calculated as the rate of tracer infusion (dpm/min) divided by the corrected plasma glucose specific activity (dpm/mg) per kg body weight of the mouse. Fluctuations from steady-state were accounted for by the use of Steele’s model. Plasma glucose was measured using the Analox GMD9 system (Analox Technologies).
Tissue samples (~30 mg each) were homogenized in 750 µl of 0.5% perchloric acid, neutralized with 10 M KOH, and centrifuged. The supernatant was then used for first measuring the abundance of total [1-^14C] signal (derived from both 1-^14C -2-deoxy-D-glucose, 1-^14C -2-deoxy-D-glucose 6 phosphate) and, following a precipitation step with 0.3 N […] and 0.3 N ZnSO4, for the measuring of non-phosphorylated 1-^14C -2-deoxy-D-glucose. Glycogen was isolated by ethanol precipitation from 30% KOH tissue lysates, as described. Insulin levels in plasma at T0 and T140 were measured using a Stellux ELISA rodent insulin kit (Alpco).

SWELL1 protein = test system: T1, SWELL1 protein; test: SWELL1 protein in skeletal muscle and liver of treated T2D mice; format: in vivo, mouse
T1 construct: from tissue; host or cells: soleus muscle of HFD-T2D mice; liver of T2D KKA^y mice
Protocol: Adipocytes were washed twice in ice-cold phosphate buffer saline and lysed in RIPA buffer (150 mM NaCl, 20 mM HEPES, 1% NP-40, 5 mM EDTA, pH 7.4) with proteinase/phosphatase inhibitors (Roche). The cell lysate was further sonicated in 10 s cycle intervals 2–3 times and centrifuged at 18,407×g for 30 min at 4 °C and repeated one more time to remove the excess fat. The supernatant was collected and further estimated for protein concentration using a DC protein assay kit (Bio-Rad). Fat and liver tissues were homogenized and suspended in RIPA buffer with inhibitors and further processed in a similar fashion as described above. HUVECs were also prepared in a similar fashion except the lysates were spun only once to remove the cells debris to obtain the clear supernatant. For islets, either human or mouse islets were washed twice with phosphate buffer saline (PBS) and lysed using RIPA buffer containing protease and phosphatase inhibitors. The lysate was further clarified by freezing in liquid nitrogen for about 10 s for three cycles. The supernatant was collected from the whole lysate centrifuged at 16,260×g for 20 min at 4 °C. […] The images were further analyzed for band intensities using ImageJ software. […]

CCCCC1(C2CCCC2)Cc2cc(OCCCC(=O)O)c(Cl)c(Cl)c2C1=O (stereo not shown) [SN-401, 4-((2-butyl-6,7-dichloro-2-cyclopentyl-1-oxo-2,3-dihydro-1H-inden-5-yl)oxy)butanoic acid]
glucose incorporation into glycogen in liver, adipose, and skeletal muscle (T2D KKAy mice; KKAy mice): markedly increased
insulin-stimulated 2-DG uptake into iWAT, gWAT and myocardium (T2D KKAy mice; KKAy mice): enhanced
glucose-infusion rate (GIR) to maintain euglycemia (T2D KKAy mice; KKAy mice, 5 mg/kg i.p. 4 days, vs vehicle): higher
reduction of rate of glucose appearance (Ra) (T2D KKAy mice; baseline (Basal)): 40%
suppression of rate of glucose appearance (Ra) (T2D KKAy mice; during glucose/insulin infusion (Clamp)): 75%
SWELL1 induction in skeletal muscle (SWELL1 protein; HFD-T2D mice (18 weeks HFD), 5 mg/kg i.p. 4 days): trend toward SN-401 mediated SWELL1 induction
hepatic SWELL1 protein (SWELL1 protein; T2D KKAy mice, 5 mg/kg i.p. 5 days): does not induce
